Test results: US11654132B2, “Methods for treating COVID-19” (priority 2020, dated 2023)
Where two headings read alike, the source gives them in different places.

What was measured:
SARS-CoVid-2 infection = details: combined with azithromycin; cited from earlier work
[1] = cited from earlier work; for in vivo activity: oral and/or intravenous administration, prodrug vs active form
[2] = system: Lipopolysaccharide stimulated IL-1B production; details: ex-vivo; active metabolite; cited from earlier work
CYP = details: cited from earlier work
[3] = NASH patients; cited from earlier work
chronic HCV = details: cited from earlier work
[4] = in vivo; cited from earlier work
[5] = in vivo; cited from earlier work; remark: listed apart in the source
[6] = in vivo; cited from earlier work; remark: listed apart in the source
caspase-1 = biological target: T1, caspase-1 (Homo sapiens, UniProt P29466); details: healthy and disease states; cited from earlier work
T1 sequence (P29466 120-297 limits assumed): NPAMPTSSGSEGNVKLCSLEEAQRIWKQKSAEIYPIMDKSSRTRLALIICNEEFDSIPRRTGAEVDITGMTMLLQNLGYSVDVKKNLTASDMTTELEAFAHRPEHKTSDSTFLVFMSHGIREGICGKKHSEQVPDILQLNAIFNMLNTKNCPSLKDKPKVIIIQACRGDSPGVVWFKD
T1 sequence (P29466 317-404 limits assumed): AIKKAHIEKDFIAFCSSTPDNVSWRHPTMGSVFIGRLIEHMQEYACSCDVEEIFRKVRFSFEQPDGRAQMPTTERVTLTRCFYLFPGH

[7] = in vivo
IL-1B = details: cited from earlier work
CYP3A4 = CYP3A4 (Homo sapiens, UniProt P08684); details: recombinant enzyme system; cited from earlier work
IL-18 = details: cited from earlier work; for inhibition of IL-18: during the duration of the study
[8] = system: CD4 T-cell pyroptotic death in HIV-infected lymphoid tissues; details: dose-dependent; cited from earlier work
[9] = dogs at 2000 mg/kg/day; cited from earlier work
SARS-CoV = details: in vitro; cited from earlier work
COVID-19 = details: mild to moderate COVID-19 at high risk of progressing to severe disease; cited from earlier work
SARS-CoV-2 = details: human, in vivo; cited from earlier work
SARS = details: 400 mg and 100 mg added to ribavirin vs historical control; cited from earlier work

CYP3A4, sequence (P08684 whole entry): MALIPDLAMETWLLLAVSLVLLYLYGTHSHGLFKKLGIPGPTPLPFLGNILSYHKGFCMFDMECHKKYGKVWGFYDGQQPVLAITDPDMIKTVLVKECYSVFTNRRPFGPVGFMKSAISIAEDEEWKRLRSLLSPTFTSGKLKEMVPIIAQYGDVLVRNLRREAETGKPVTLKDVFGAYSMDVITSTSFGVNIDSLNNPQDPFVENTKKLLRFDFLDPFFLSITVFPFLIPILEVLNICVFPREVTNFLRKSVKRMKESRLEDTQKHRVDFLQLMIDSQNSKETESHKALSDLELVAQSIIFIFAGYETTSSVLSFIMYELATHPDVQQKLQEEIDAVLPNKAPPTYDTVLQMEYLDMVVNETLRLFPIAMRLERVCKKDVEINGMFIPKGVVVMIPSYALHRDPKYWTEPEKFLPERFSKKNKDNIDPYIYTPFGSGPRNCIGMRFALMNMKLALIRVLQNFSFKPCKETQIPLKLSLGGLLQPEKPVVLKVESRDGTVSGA

In the case of `CCN(CCO)CCCC(C)Nc1ccnc2cc(Cl)ccc12` (centres unmarked) [Hydroxychloroquine], the “viral loads vs control patients” value (SARS-CoVid-2 infection) is listed as “Viral loads appeared to diminish faster”.

In the case of `CC(C)(C)C(NC(=O)c1ccc(N)c(Cl)c1)C(=O)N1CCCC1C(=O)NC(C=O)CC(=O)O` (centres unmarked) [II], the bioavailability ([1]; active form) is listed as “poor bioavailability”, the in vivo activity [1] is listed as “less than optimal in vivo activity” and the “concentration at which Lipopolysaccharide stimulated IL-1B production is 50% suppressed” value [2] is listed as 0.8 µg/mL. For the same compound, the “CYP-mediated metabolism as route of clearance” value (CYP; in vitro studies) was “not a major route of clearance”.

In the case of `CC(C)[C@@]1(C(=O)N[C@H]2CC(=O)O[C@]2(O)CF)CC(c2nccc3ccccc23)=NO1` [Nivocasan], the ALT levels [3] is given as “Reductions in ALT levels in NASH” and the “reason for termination of Phase IIb” value (chronic HCV) is given as “significant laboratory abnormalities”.

In the case of `CCO[C@@H]1OC(=O)C[C@@H]1NC(=O)[C@@H]1CCCN2C(=O)CC[C@H](NC(=O)c3nccc4ccccc34)C(=O)N12` [Pralnacasan], the “reason for termination in Phase IIb in RA” value [4] is listed as “liver toxicity in animals (102)” and the “clinical trial outcome in rheumatoid arthritis and osteoarthritis” value [5] is listed as “amelioration of RA, but not”.

In the case of `CCO[C@@H]1OC(=O)C[C@@H]1NC(=O)[C@@H]1CCCN1C(=O)[C@@H](NC(=O)c1ccc(N)c(Cl)c1)C(C)(C)C` [belnacasan], the “adverse effects reported in humans” value [6] is given as “mild and mainly include headache, nausea, lethargy and dizziness”, the seizure [6] is given as “reported in more than one patient” and the “severity of adverse events (CTCAE)” value [6] is given as “mild and of no consequence (grade 1 and 2 by CTCAE criteria)”. For the same compound, the in vivo activity [1] was “better in vivo activity”, the “effect of blocking caspase-1” value (caspase-1) was “prevent production of IL-1β, IL-18, and pyroptosis” and the “dog dose estimated as multiple of the maximum dose in this study” value [7] was 10-25 times. The “suppression of IL-1B” value (IL-1B; single oral dose of 400 mg) was 50%, the “suppression of IL-1B” value (IL-1B; single oral dose of 800 mg) was 80% and the “suppression of IL-1B” value (IL-1B; single oral dose of 1600 mg) was 80%. The “metabolism by CYP3A4” value (CYP3A4) was “metabolized by CYP3A4”, the “CYP-mediated metabolism as route of clearance” value (CYP) was “not a major route of clearance” and the “inhibition of IL-18” value (IL-18; 900 mg TID) was 60%. For the same compound, the “inhibition of IL-18” value (IL-18; 1200 mg TID) was 60%, the “inhibition of IL-18” value (IL-18; 1800 mg TID) was 60% and the “inhibition of IL-18 over 14 days as compared to placebo” value (IL-18; healthy controls) was “gradual but marked inhibition”. The “CD4 T-cell pyroptotic death” value [8] was “Prevents CD4 T-cell” and the “only preclinical finding on toxicity studies” value [9] was “reduction of the heart rate”.

For `Cc1cccc(C)c1OCC(=O)N[C@@H](Cc1ccccc1)[C@@H](O)C[C@H](Cc1ccccc1)NC(=O)[C@H](C(C)C)N1CCCNC1=O` [lopinavir], the “activity against SARS-CoV” value (SARS-CoV) is listed as “in vitro inhibitory activity”.

For “bamlanivimab: monoclonal antibody for COVID-19”, the efficacy (COVID-19) is given as “efficacious”.

In the case of “casirivimab: monoclonal antibody for COVID-19”, the efficacy (COVID-19) is listed as “efficacious”.

In the case of “imdevimab: monoclonal antibody for COVID-19”, the efficacy (COVID-19) is listed as “efficacious”.

In the case of lopinavir—ritonavir, the “clinical symptoms, mortality, viral loads vs standard of care alone” value (SARS-CoV-2) is listed as “no improvement in clinical symptoms, mortality, or viral loads” and the “risk of adverse clinical outcomes (ARDS or death) and viral load” value (SARS) is listed as “reduced the risk of adverse clinical outcomes”.
